# Experimental data reported in patent US20240116985A1, “STAPLED PEPTIDES AND METHODS THEREOF” (priority 2020, published 2024).
# Assay: CHI Log D procedure
# Assay type: physicochemical
# Details: for chromatographic logD: pH 7.4, CHI Log D; for CHI Log D: pH 7.4
Compound,chromatographic logD,CHI Log D
"CC(=O)N[C@@H](Cc1ccccc1)C(=O)N[C@@H](CC(=O)O)C(=O)N[C@@H](C)C(=O)N[C@]1(C)CCCCCCC=CCOC(=O)N2CC[C@@](C(=O)N[C@@H](Cc3ccccc3)C(=O)N[C@@H](Cc3c[nH]c4ccccc34)C(=O)N[C@@H](CCC(N)=O)C(N)=O)(C2)NC(=O)[C@H](C(C)C)NC(=O)[C@H](Cc2ccccc2)NC(=O)[C@H](C)NC(=O)[C@H](C)NC(=O)[C@H](CC2CCCCC2)NC(=O)[C@H](CC(=O)O)NC1=O (single isomer, unassigned) [I-15, Ac-Phe-Asp-Ala-R8-Asp-Cha-Ala-Ala-Phe-Val-PyrS-Phe-Trp-Gln-NH2]",2.21,–
"CC(=O)N[C@@H](Cc1ccccc1)C(=O)N[C@@H](CC(=O)O)C(=O)N[C@@H](C)C(=O)N[C@]1(C)CCCCCCC=CCOC(=O)N2CC[C@@](C(=O)N[C@@H](Cc3ccccc3)C(=O)N[C@@H](Cc3c[nH]c4ccccc34)C(=O)N[C@@H](CCC(N)=O)C(N)=O)(C2)NC(=O)[C@H](C(C)C)NC(=O)[C@H](Cc2ccccc2)NC(=O)[C@H](C)NC(=O)[C@H](C)NC(=O)[C@H](CC2CCCCC2)NC(=O)[C@H](CC(=O)O)NC1=O (single isomer, unassigned) [I-16, Ac-Phe-Asp-Ala-R8-Asp-Cha-Ala-Ala-Phe-Val-PyrS-Phe-Trp-Gln-NH2]",–,2.21
"CC(=O)N[C@@H](Cc1ccccc1)C(=O)N[C@@H](CC(=O)O)C(=O)N[C@@H](C)C(=O)N[C@]1(C)CCCCCCC=CCOC(=O)N2CC[C@@](C(=O)N[C@@H](Cc3ccccc3)C(=O)N[C@@H](Cc3c[nH]c4ccccc34)C(=O)N[C@@H](CCC(N)=O)C(N)=O)(C2)NC(=O)[C@H](C(C)C)NC(=O)[C@H](Cc2ccccc2)NC(=O)[C@H](C)NC(=O)[C@H](C)NC(=O)[C@H](CCC(C)C)NC(=O)[C@H](CC(=O)O)NC1=O (single isomer, unassigned) [I-17, Ac-Phe-Asp-Ala-R8-Asp-hLeu-Ala-Ala-Phe-Val-PyrS-Phe-Trp-Gln-NH2]",2.1,–
"CC(=O)N[C@@H](Cc1ccccc1)C(=O)N[C@@H](CC(=O)O)C(=O)N[C@@H](C)C(=O)N[C@]1(C)CCCCCCC=CCOC(=O)N2CC[C@@](C(=O)N[C@@H](Cc3ccccc3)C(=O)N[C@@H](Cc3c[nH]c4ccccc34)C(=O)N[C@@H](CCC(N)=O)C(N)=O)(C2)NC(=O)[C@H](C(C)C)NC(=O)[C@H](Cc2ccccc2)NC(=O)[C@H](CC(=O)O)NC(=O)[C@H](C)NC(=O)[C@H](CC(=O)O)NC(=O)[C@H](CC(=O)O)NC1=O (single isomer, unassigned) [I-19, Ac-Phe-Asp-Ala-R8-Asp-Asp-Ala-Asp-Phe-Val-PyrS-Phe-Trp-Gln-NH2]",0.948,–
"CC(=O)N[C@@H](Cc1ccccc1)C(=O)N[C@@H](CC(=O)O)C(=O)N[C@@H](C)C(=O)N[C@]1(C)CCCCCCC=CCOC(=O)N2CC[C@@](C(=O)N[C@@H](Cc3ccccc3)C(=O)N[C@@H](Cc3c[nH]c4ccccc34)C(=O)N[C@@H](CCC(N)=O)C(N)=O)(C2)NC(=O)[C@H](C(C)C)NC(=O)[C@H](Cc2ccccc2)NC(=O)[C@H](CC(=O)O)NC(=O)[C@H](C)NC(=O)[C@H](CC(=O)O)NC(=O)[C@H](CC(=O)O)NC1=O (single isomer, unassigned) [I-20, Ac-Phe-Asp-Ala-R8-Asp-Asp-Ala-Asp-Phe-Val-PyrS-Phe-Trp-Gln-NH2]",–,0.935
"CC(=O)N[C@@H](Cc1ccccc1)C(=O)N[C@@H](CC(=O)O)C(=O)N[C@@H](C)C(=O)N[C@]1(C)CCCCCCC=CCOC(=O)N2CC[C@@](C(=O)N[C@@H](Cc3ccccc3)C(=O)N[C@@H](Cc3c[nH]c4ccccc34)C(=O)N[C@@H](CCC(N)=O)C(N)=O)(C2)NC(=O)[C@H](C(C)C)NC(=O)[C@H](Cc2ccccc2)NC(=O)[C@H](CCC(=O)O)NC(=O)[C@H](C)NC(=O)[C@H](CC(=O)O)NC(=O)[C@H](CC(=O)O)NC1=O (single isomer, unassigned) [I-21, Ac-Phe-Asp-Ala-R8-Asp-Asp-Ala-Glu-Phe-Val-PyrS-Phe-Trp-Gln-NH2]",0.92,–
"CC(=O)N[C@@H](Cc1ccccc1)C(=O)N[C@@H](CC(=O)O)C(=O)N[C@@H](C)C(=O)N[C@]1(C)CCCCCCC=CCOC(=O)N2CC[C@@](C(=O)N[C@@H](Cc3ccccc3)C(=O)N[C@@H](Cc3c[nH]c4ccccc34)C(=O)N[C@@H](CCC(N)=O)C(N)=O)(C2)NC(=O)[C@H](C(C)C)NC(=O)[C@H](Cc2ccccc2)NC(=O)[C@H](CCC(=O)O)NC(=O)[C@H](C)NC(=O)[C@H](CC(=O)O)NC(=O)[C@H](CC(=O)O)NC1=O (single isomer, unassigned) [I-22, Ac-Phe-Asp-Ala-R8-Asp-Asp-Ala-Glu-Phe-Val-PyrS-Phe-Trp-Gln-NH2]",–,0.911

# Next, values leading:
chromatographic logD,CHI Log D,Compound
–,2.108,"CC(=O)N[C@@H](Cc1ccccc1)C(=O)N[C@@H](CC(=O)O)C(=O)N[C@@H](C)C(=O)N[C@]1(C)CCCCCCC=CCOC(=O)N2CC[C@@](C(=O)N[C@@H](Cc3ccccc3)C(=O)N[C@@H](Cc3c[nH]c4ccccc34)C(=O)N[C@@H](CCC(N)=O)C(N)=O)(C2)NC(=O)[C@H](C(C)C)NC(=O)[C@H](Cc2ccccc2)NC(=O)[C@H](C)NC(=O)[C@H](C)NC(=O)[C@H](CCC(C)C)NC(=O)[C@H](CC(=O)O)NC1=O (single isomer, unassigned) [I-18, Ac-Phe-Asp-Ala-R8-Asp-hLeu-Ala-Ala-Phe-Val-PyrS-Phe-Trp-Gln-NH2]"
1.6,–,"CC(=O)N[C@@H](Cc1ccccc1)C(=O)N[C@@H](CC(=O)O)C(=O)N[C@@H](C)C(=O)N[C@]1(C)CCCN(C)C(=O)OCC=CCCCC[C@@](C)(C(=O)N[C@@H](Cc2ccccc2)C(=O)N[C@@H](Cc2c[nH]c3ccccc23)C(=O)N[C@@H](CCC(N)=O)C(N)=O)NC(=O)[C@H](C(C)C)NC(=O)[C@H](Cc2ccccc2)NC(=O)[C@H](C)NC(=O)[C@H](C)NC(=O)[C@H](CC(=O)O)NC(=O)[C@H](CC(=O)O)NC1=O (single isomer, unassigned) [I-29, Ac-Phe-Asp-Ala-ReN-Asp-Asp-Ala-Ala-Phe-Val-S6-Phe-Trp-Gln-NH2]"
1.26,–,"CC(=O)N[C@@H](Cc1ccccc1)C(=O)N[C@@H](CC(=O)O)C(=O)N[C@@H](C)C(=O)N[C@]1(C)CCCCCCC=CCOC(=O)N2CC(C(=O)N[C@@H](Cc3ccccc3)C(=O)N[C@@H](Cc3c[nH]c4ccccc34)C(=O)N[C@@H](CCC(N)=O)C(N)=O)(C2)NC(=O)[C@H](C(C)C)NC(=O)[C@H](Cc2ccccc2)NC(=O)[C@H](C)NC(=O)[C@H](C)NC(=O)[C@H](CC(=O)O)NC(=O)[C@H](CC(=O)O)NC1=O (single isomer, unassigned) [I-39, Ac-Phe-Asp-Ala-R8-Asp-Asp-Ala-Ala-Phe-Val-Az-Phe-Trp-Gln-NH2]"
–,1.243,"CC(=O)N[C@@H](Cc1ccccc1)C(=O)N[C@@H](CC(=O)O)C(=O)N[C@@H](C)C(=O)N[C@]1(C)CCCCCCC=CCOC(=O)N2CC(C(=O)N[C@@H](Cc3ccccc3)C(=O)N[C@@H](Cc3c[nH]c4ccccc34)C(=O)N[C@@H](CCC(N)=O)C(N)=O)(C2)NC(=O)[C@H](C(C)C)NC(=O)[C@H](Cc2ccccc2)NC(=O)[C@H](C)NC(=O)[C@H](C)NC(=O)[C@H](CC(=O)O)NC(=O)[C@H](CC(=O)O)NC1=O (single isomer, unassigned) [I-40, Ac-Phe-Asp-Ala-R8-Asp-Asp-Ala-Ala-Phe-Val-Az-Phe-Trp-Gln-NH2]"
1.09,–,"CC(=O)N[C@@H](Cc1ccccc1)C(=O)N[C@@H](CC(=O)O)C(=O)N[C@@H](C)C(=O)N[C@]1(C)CCN(C)C(=O)OCC=CCC[C@@](C)(C(=O)N[C@@H](Cc2ccccc2)C(=O)N[C@@H](Cc2c[nH]c3ccccc23)C(=O)N[C@@H](CCC(N)=O)C(N)=O)NC(=O)[C@H](C(C)C)NC(=O)[C@H](Cc2ccccc2)NC(=O)[C@H](C)NC(=O)[C@H](C)NC(=O)[C@H](CC(=O)O)NC(=O)[C@H](CC(=O)O)NC1=O (single isomer, unassigned) [I-41, Ac-Phe-Asp-Ala-RdN-Asp-Asp-Ala-Ala-Phe-Val-S4-Phe-Trp-Gln-NH2]"
1.31,–,"CC(=O)N[C@@H](Cc1ccccc1)C(=O)N[C@@H](CC(=O)O)C(=O)N[C@@H](C)C(=O)N[C@]1(C)CN(C)C(=O)OCC=CCCCCCC[C@@](C)(C(=O)N[C@@H](Cc2ccccc2)C(=O)N[C@@H](Cc2c[nH]c3ccccc23)C(=O)N[C@@H](CCC(N)=O)C(N)=O)NC(=O)[C@H](C(C)C)NC(=O)[C@H](Cc2ccccc2)NC(=O)[C@H](C)NC(=O)[C@H](C)NC(=O)[C@H](CC(=O)O)NC(=O)[C@H](CC(=O)O)NC1=O (single isomer, unassigned) [I-43, Ac-Phe-Asp-Ala-RgN-Asp-Asp-Ala-Ala-Phe-Val-S8-Phe-Trp-Gln-NH2]"
–,1.312,"CC(=O)N[C@@H](Cc1ccccc1)C(=O)N[C@@H](CC(=O)O)C(=O)N[C@@H](C)C(=O)N[C@]1(C)CN(C)C(=O)OCC=CCCCCCC[C@@](C)(C(=O)N[C@@H](Cc2ccccc2)C(=O)N[C@@H](Cc2c[nH]c3ccccc23)C(=O)N[C@@H](CCC(N)=O)C(N)=O)NC(=O)[C@H](C(C)C)NC(=O)[C@H](Cc2ccccc2)NC(=O)[C@H](C)NC(=O)[C@H](C)NC(=O)[C@H](CC(=O)O)NC(=O)[C@H](CC(=O)O)NC1=O (single isomer, unassigned) [I-44, Ac-Phe-Asp-Ala-RgN-Asp-Asp-Ala-Ala-Phe-Val-S8-Phe-Trp-Gln-NH2]"
1.21,–,"CC(=O)N[C@@H](Cc1ccccc1)C(=O)N[C@@H](CC(=O)O)C(=O)N[C@@H](C)C(=O)N[C@]1(C)CN(C)C(=O)OCC=CCCCCC[C@@](C)(C(=O)N[C@@H](Cc2ccccc2)C(=O)N[C@@H](Cc2c[nH]c3ccccc23)C(=O)N[C@@H](CCC(N)=O)C(N)=O)NC(=O)[C@H](C(C)C)NC(=O)[C@H](Cc2ccccc2)NC(=O)[C@H](C)NC(=O)[C@H](C)NC(=O)[C@H](CC(=O)O)NC(=O)[C@H](CC(=O)O)NC1=O (single isomer, unassigned) [I-45, Ac-Phe-Asp-Ala-RgN-Asp-Asp-Ala-Ala-Phe-Val-S7-Phe-Trp-Gln-NH2]"
–,1.205,"CC(=O)N[C@@H](Cc1ccccc1)C(=O)N[C@@H](CC(=O)O)C(=O)N[C@@H](C)C(=O)N[C@]1(C)CN(C)C(=O)OCC=CCCCCC[C@@](C)(C(=O)N[C@@H](Cc2ccccc2)C(=O)N[C@@H](Cc2c[nH]c3ccccc23)C(=O)N[C@@H](CCC(N)=O)C(N)=O)NC(=O)[C@H](C(C)C)NC(=O)[C@H](Cc2ccccc2)NC(=O)[C@H](C)NC(=O)[C@H](C)NC(=O)[C@H](CC(=O)O)NC(=O)[C@H](CC(=O)O)NC1=O (single isomer, unassigned) [I-46, Ac-Phe-Asp-Ala-RgN-Asp-Asp-Ala-Ala-Phe-Val-S7-Phe-Trp-Gln-NH2]"
